According to patent US9533983B2, “Antiplatelet agent” (Mitsubishi Tanabe Pharma Corporation, priority 2009, dated 2017):

How the values were obtained:
Assay type in all cases: cell-based
Settings in all cases: Cavia porcellus, guinea pig PRP
[1] = test system: Collagen-Induced Platelet Aggregation; test: Platelet aggregation inhibitory activity: collagen-induced platelet aggregation in platelet rich plasma
Description: (§1) A blood of a guinea pig was sampled by using a 1/10 volume of a 3.8% sodium citrate as a platelet aggregation inhibitor, and a platelet rich plasma (PRP) was separated by centrifuging the blood sample at 1100 rpm for 10 min. After fractionating the PRP in the upper layer, the lower layer was centrifuged at 3000 rpm for 10 min to fractionate the platelet poor plasma (PPP). To 100 μL of PRP, a 1 μL solution of each compound was added, and after still standing at 37° C. for 1 min, the mixture was stirred at 37° C. for 1 min by a stirrer. Then, 11 μL of collagen, ristocetin, or ADP was added thereto to induce the platelet aggregation. The platelet aggregation ability was measured by using the mCM hematolaser 313M (L-M-S Inc.). Based on the assumption that a light transmittance of PPP corresponds to a 100% coagulation value, an aggregation rate at each concentration of the compound was determined, then, an IC50 value was calculated therefrom.
[Platelet Aggregation Inhibitory Activities: Collagen-Induced Platelet Aggregation]

[2] = test system: ADP-Induced Platelet Aggregation; test: Platelet aggregation inhibitory activity: ADP-induced platelet aggregation in platelet rich plasma
Description: as §1
[Platelet Aggregation Inhibitory Activities: ADP-Induced Platelet Aggregation]

[3] = test system: Ristocetin-Induced Platelet Aggregation; test: Platelet aggregation inhibitory activity: ristocetin-induced platelet aggregation in platelet rich plasma
Description: as §1
[Platelet Aggregation Inhibitory Activities: Ristocetin-Induced Platelet Aggregation]

SMILES | IC50 [1] [nM] | IC50 [2] [nM] | IC50 [3] [nM]
COc1ccc(-n2c(-c3ccccn3)nc3cc(C(F)(F)F)ccc32)cn1 [Example 14, 1-(6-methoxypyridin-3-yl)-2-pyridin-2-yl-5-(trifluoromethyl)-1H-benzimidazole] | 200 | > 10000 | –
COc1ccc(-n2c(-c3ccccn3)nc3cc(OC(F)(F)F)ccc32)cn1 [Example 40, 1-(6-methoxypyridin-3-yl)-2-pyridin-2-yl-5-(trifluoromethoxy)-1H-benzimidazole] | 330 | > 10000 | 170
COc1ccc(-n2c(-c3ccccn3)nc3cc(OCC(C)C)cnc32)cn1 [Example 174, 6-isobuthoxy-3-(6-methoxypyridin-3-yl)-2-pyridin-2-yl-3H-imidazo[4,5-b]pyridine] | 84 | – | 87
COc1ccc(-n2c(-c3ccccn3)nc3cc(OCC(F)(F)F)cnc32)cn1 [Example 175, 3-(6-methoxypyridin-3-yl)-2-pyridin-2-yl-6-(2,2,2-trifluoroethoxy)-3H-imidazo[4,5-b]pyridine] | 75 | – | 75
COc1ccc(-n2c(-c3ccccn3)nc3cc(OC(C)C(F)(F)F)cnc32)cn1 (centres unmarked) [Example 176, 3-(6-methoxypyridin-3-yl)-2-pyridin-2-yl-6-(2,2,2-trifluoro-1-methylethoxy)-3H-imidazo[4,5-b]pyridine] | 55 | – | 63
COc1ccc(-n2c(-c3ccccn3)cc3cc(C(F)(F)F)ccc32)cn1 [Example 182, 1-(6-methoxypyridin-3-yl)-2-pyridin-2-yl-5-(trifluoromethyl)-1H-indole] | 116 | > 10000 | –
COc1ccc(-c2c3ccc(C(F)(F)F)cc3nn2-c2ccc(F)cn2)cn1 [Example 185, 2-(5-fluoropyridin-2-yl)-3-(6-methoxypyridin-3-yl)-6-(trifluoromethyl)-2H-indazole] | 70 | > 10000 | –

Compounds with a lower IC50 [1], results first:

IC50 [1] [nM] | IC50 [2] [nM] | IC50 [3] [nM] | SMILES
33 | > 10000 | 100 | COc1ccc(-n2c(-c3ccccn3)nc3cc(C(F)(F)F)ccc32)nn1 [Example 1, 1-(6-methoxypyridazin-3-yl)-2-pyridin-2-yl-5-(trifluoromethyl)-1H-benzimidazole]
32 | > 10000 | 32 | COc1ccc(-n2c(-c3ccccn3)nc3cc(OC(F)(F)F)ccc32)nn1 [Example 3, 1-(6-methoxypyridazin-3-yl)-2-pyridin-2-yl-5-(trifluoromethoxy)-1H-benzimidazole]
21 | > 10000 | 24 | COc1ccc(-n2c(-c3ccc(F)cn3)nc3cc(C(F)(F)F)cnc32)cn1 [Example 4, 2-(5-fluoropyridin-2-yl)-3-(6-methoxypyridin-3-yl)-6-(trifluoromethyl)-3H-imidazo[4,5-b]pyridine]
25 | > 10000 | 60 | COc1ccc(-n2c(-c3ccc(C#N)cn3)nc3cc(C(F)(F)F)ccc32)nn1 [Example 7, 6-[1-(6-methoxypyridazin-3-yl)-5-(trifluoromethyl)-1H-benzimidazole-2-yl]nicotinonitrile]
42 | > 10000 | 41 | COc1ccc(-n2c(-c3ccccn3)nc3cc(C(F)(F)F)cnc32)cn1 [Example 13, 3-(6-methoxypyridin-3-yl)-2-pyridin-2-yl-6-(trifluoromethyl)-3H-imidazo[4,5-b]pyridine]
49 | > 10000 | 180 | COc1ccc(-n2c(-c3ccc(Cl)cn3)nc3cc(C(F)(F)F)ccc32)cn1 [Example 36, 2-(5-chloropyridin-2-yl)-1-(6-methoxypyridin-3-yl)-5-(trifluoromethyl)-1H-benzimidazole]
17 | > 10000 | – | COc1ccc(-n2c(-c3ccc(F)cn3)cc3cc(C(F)(F)F)cnc32)cn1 [Example 184, 2-(5-fluoropyridin-2-yl)-1-(6-methoxypyridin-3-yl)-5-(trifluoromethyl)-1H-pyrrolo[2,3-b]pyridine]
